Reference: ChEMBL document CHEMBL3632522, “Novel 3,4-methylenedioxyde-6-X-benzaldehyde-thiosemicarbazones: Synthesis and antileishmanial effects against Leishmania amazonensis” (Eur J Med Chem, 2015)
Activity calls are given as the source filed them. The calls are words filed in the database; no cut-off is given here.

test system: not listed separately; test: Selectivity index, ratio of LD50 for BALB/c mouse peritoneal macrophages to IC50 for Leishmania amazonensis MHOM/BR/77/LTB0016 intracellular amastigotes infected in BALB/c mouse peritoneal macrophages; details: not given

| SMILES | Ratio LD50/IC50 |
| --- | --- |
| N#Cc1cc2c(cc1/C=N/NC(N)=S)OCO2 | >7.4 |
| NC(=S)N/N=C/c1cc2c(cc1I)OCO2 | >5.7 |
| N=C(N)c1ccc(OCCCCCOc2ccc(C(=N)N)cc2)cc1 [PENTAMIDINE] | 4.5 |

test system: not listed separately; test: Cytotoxicity against BALB/c mouse peritoneal macrophages assessed as cell viability after 72 hrs by resazurin assay; format: cell-based, Peritoneal macrophage cell; details: read-out: LD50

| SMILES | CC50 at 72 h |
| --- | --- |
| N#Cc1cc2c(cc1/C=N/NC(N)=S)OCO2 | > 125 µM |
| NC(=S)N/N=C/c1cc2c(cc1I)OCO2 | > 125 µM |
| N=C(N)c1ccc(OCCCCCOc2ccc(C(=N)N)cc2)cc1 [PENTAMIDINE] | 8.5 µM |

test system: Leishmania amazonensis; test: Antileishmanial activity against Leishmania amazonensis MHOM/BR/77/LTB0016 assessed as inhibition of parasite growth incubated for 72 hrs by MTT assay; format: functional, organism-based; details: not given

| SMILES | inhibition |
| --- | --- |
| NC(=S)N/N=C/c1cc2c(cc1Cl)OCO2 | Dose-dependent effect |
| NC(=S)N/N=C/c1cc2c(cc1NC(=O)CCl)OCO2 | Dose-dependent effect |
| N#Cc1cc2c(cc1/C=N/NC(N)=S)OCO2 | Dose-dependent effect |
| NC(=S)N/N=C/c1cc2c(cc1O)OCO2 | Dose-dependent effect |
| NC(=S)N/N=C/c1cc2c(cc1Br)OCO2 | Dose-dependent effect |
| NC(=S)N/N=C/c1cc2c(cc1N)OCO2 | Dose-dependent effect |
| NC(=S)N/N=C/c1cc2c(cc1I)OCO2 | Dose-dependent effect |
| NC(=S)N/N=C/c1cc2c(cc1[N+](=O)[O-])OCO2 | Dose-dependent effect |
| NC(=S)N/N=C/c1cc2c(cc1F)OCO2 | Dose-dependent effect |
| NC(=S)N/N=C/c1ccc2c(c1)OCO2 | Dose-dependent effect |
| N=C(N)c1ccc(OCCCCCOc2ccc(C(=N)N)cc2)cc1 [PENTAMIDINE] | Dose-dependent effect |

same assay, conditions: MHOM/BR/77/LTB0016, 72 h

| SMILES | IC50 |
| --- | --- |
| NC(=S)N/N=C/c1cc2c(cc1Cl)OCO2 | 244 µM |
| NC(=S)N/N=C/c1cc2c(cc1NC(=O)CCl)OCO2 | 256 µM |
| N#Cc1cc2c(cc1/C=N/NC(N)=S)OCO2 | 16.4 µM |
| NC(=S)N/N=C/c1cc2c(cc1O)OCO2 | 53 µM |
| NC(=S)N/N=C/c1cc2c(cc1Br)OCO2 | 202 µM |
| NC(=S)N/N=C/c1cc2c(cc1N)OCO2 | 119 µM |
| NC(=S)N/N=C/c1cc2c(cc1I)OCO2 | 20.7 µM |
| NC(=S)N/N=C/c1cc2c(cc1[N+](=O)[O-])OCO2 | 271 µM |
| NC(=S)N/N=C/c1cc2c(cc1F)OCO2 | 197 µM |
| NC(=S)N/N=C/c1ccc2c(c1)OCO2 | 79.7 µM |
| N=C(N)c1ccc(OCCCCCOc2ccc(C(=N)N)cc2)cc1 [PENTAMIDINE] | 4.8 µM |

test system: Leishmania amazonensis; test: Antileishmanial activity against Leishmania amazonensis Leishmania amazonensis MHOM/BR/77/LTB0016 intracellular amastigotes infected in BALB/c mouse macrophages incubated for 72 hrs by microscopy; format: functional, organism-based; details: MHOM/BR/77/LTB0016, 72 h

| SMILES | IC50 |
| --- | --- |
| N#Cc1cc2c(cc1/C=N/NC(N)=S)OCO2 | 17 µM |
| NC(=S)N/N=C/c1cc2c(cc1I)OCO2 | 22 µM |
| N=C(N)c1ccc(OCCCCCOc2ccc(C(=N)N)cc2)cc1 [PENTAMIDINE] | 1.9 µM |

test system: Leishmania amazonensis; test: Antileishmanial activity against Leishmania amazonensis Leishmania amazonensis MHOM/BR/77/LTB0016 intracellular amastigotes infected in BALB/c mouse macrophages at 12.5 to 100 uM incubated for 72 hrs by optical microscopy; format: functional, organism-based; details: not given

| SMILES | Activity |
| --- | --- |
| N#Cc1cc2c(cc1/C=N/NC(N)=S)OCO2 | Active |
| NC(=S)N/N=C/c1cc2c(cc1I)OCO2 | Active |

test system: not listed separately; test: Cytotoxicity against BALB/c mouse peritoneal macrophages infected with Leishmania amazonensis MHOM/BR/77/LTB0016 intracellular amastigotes assessed as cell viability at 12.5 to 100 uM after 72 hrs by resazurin staining based optical microscopy; details: peritoneal macrophage cell

| SMILES | Activity |
| --- | --- |
| N#Cc1cc2c(cc1/C=N/NC(N)=S)OCO2 | Non-toxic |
| NC(=S)N/N=C/c1cc2c(cc1I)OCO2 | Non-toxic |
